Structures can show the parent of a compound that is named as a salt.
These molecules were tested against PDE4D7 (Homo sapiens (Human), UniProt Q08499). Settings: read-out: PDE4D7 IC50.
Sequence of PDE4D7 (Q08499 other isoform, or with tags, fused parts or gaps): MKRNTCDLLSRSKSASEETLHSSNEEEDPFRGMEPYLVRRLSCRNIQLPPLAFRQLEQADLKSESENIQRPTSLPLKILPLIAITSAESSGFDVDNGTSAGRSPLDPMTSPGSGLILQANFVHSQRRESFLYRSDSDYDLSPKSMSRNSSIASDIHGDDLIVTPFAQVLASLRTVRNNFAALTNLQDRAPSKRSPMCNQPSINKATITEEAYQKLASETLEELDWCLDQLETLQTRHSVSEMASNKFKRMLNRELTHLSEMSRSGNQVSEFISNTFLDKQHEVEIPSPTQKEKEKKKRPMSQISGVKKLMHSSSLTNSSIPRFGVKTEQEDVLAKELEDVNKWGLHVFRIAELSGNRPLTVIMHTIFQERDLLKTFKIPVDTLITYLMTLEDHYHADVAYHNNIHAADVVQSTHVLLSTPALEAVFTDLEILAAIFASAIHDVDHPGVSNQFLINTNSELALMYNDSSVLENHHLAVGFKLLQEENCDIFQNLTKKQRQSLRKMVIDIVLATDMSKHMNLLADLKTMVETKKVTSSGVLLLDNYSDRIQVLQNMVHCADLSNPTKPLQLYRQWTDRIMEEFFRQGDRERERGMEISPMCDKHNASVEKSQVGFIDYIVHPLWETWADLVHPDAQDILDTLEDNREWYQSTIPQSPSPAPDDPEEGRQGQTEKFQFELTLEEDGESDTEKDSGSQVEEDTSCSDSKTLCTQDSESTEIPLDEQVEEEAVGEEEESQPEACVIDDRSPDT

| SMILES | IC50 |
| --- | --- |
| NC(=O)Cc1ccc(S(=O)(=O)c2cc(-c3cccc(Cl)c3)nc3c2CCC3)cc1 [Example 267, 2-(4-((2-(3-chlorophenyl)-6,7-dihydro-5H-cyclopenta[b]pyridin-4-yl)sulfonyl)phenyl)acetamide] | > 1000 nM |

Same assay, conditions: read-out: PDE4D7 IC50; PDE4D7 without asterisk

| SMILES | IC50 |
| --- | --- |
| CCc1nc(Nc2ccc(CC(N)=O)cc2)cc(-c2cccc(Cl)c2)n1 [Example 265, 2-(4-((6-(3-chlorophenyl)-2-ethylpyrimidin-4-yl)amino)phenyl)acetamide] | < 1000 nM |
| OCCCc1cccc(-c2cc(-c3cccc(Cl)c3)nc3c2CCC3)c1 [Example 266, 3-(3-(2-(3-chlorophenyl)-6,7-dihydro-5H-cyclopenta[b]pyridin-4-yl)phenyl)propan-1-ol hydrochloride] | > 1000 nM |
| O=S1(=O)CCCc2nc(-c3ccccc3)nc(Nc3ccc(CCO)cc3)c21 [Example 268, 4-((4-(2-hydroxyethyl)phenyl)amino)-2-phenyl-7,8-dihydro-6H-thiopyrano[3,2-d]pyrimidine 5,5-dioxide] | < 1000 nM |
| NC(=O)Cc1ccc(Nc2nc(-c3ccccc3)nc3c2S(=O)(=O)CCC3)cc1 [Example 269, 2-(4-((5,5-dioxido-2-phenyl-7,8-dihydro-6H-thiopyrano[3,2-d]pyrimidin-4-yl)amino)phenyl)acetamide] | < 1000 nM |
| CCCNC(=O)Cc1ccc(Nc2nc(-c3ccccc3)nc3c2S(=O)(=O)CCC3)cc1 [Example 270, 2-(4-((5,5-dioxido-2-phenyl-7,8-dihydro-6H-thiopyrano[3,2-d]pyrimidin-4-yl)amino)phenyl)-N-propylacetamide] | < 1000 nM |
| NC(=O)Cc1ccc(Nc2nc(-c3cccc(Cl)c3)nc3c2SCCC3)cc1 [Example 271, 2-(4-((2-(3-chlorophenyl)-7,8-dihydro-6H-thiopyrano[3,2-d]pyrimidin-4-yl)amino)phenyl)acetamide] | < 1000 nM |
| OCCc1ccc(Nc2nc(-c3cccc(Cl)c3)nc3c2SCCC3)cc1 [Example 272, 2-(4-((2-(3-chlorophenyl)-7,8-dihydro-6H-thiopyrano[3,2-d]pyrimidin-4-yl)amino)phenyl)ethanol] | < 1000 nM |
| O=S1(=O)CCCc2nc(-c3cccc(Cl)c3)nc(Nc3ccc(CCO)cc3)c21 [Example 273, 2-(3-Chlorophenyl)-4-((4-(2-hydroxyethyl)phenyl)amino)-7,8-dihydro-6H-thiopyrano[3,2-d]pyrimidine 5,5-dioxide] | < 1000 nM |
| NC(=O)Cc1ccc(Nc2nc(-c3cccc(Cl)c3)nc3c2S(=O)(=O)CCC3)cc1 [Example 274, 2-(4-((2-(3-chlorophenyl)-5,5-dioxido-7,8-dihydro-6H-thiopyrano[3,2-d]pyrimidin-4-yl)amino)phenyl)acetamide] | < 1000 nM |
| O=C(O)Cc1ccc(Nc2nc(-c3cccc(Cl)c3)nc3c2S(=O)(=O)CCC3)cc1 [Example 275, 2-(4-((2-(3-chlorophenyl)-5,5-dioxido-7,8-dihydro-6H-thiopyrano[3,2-d]pyrimidin-4-yl)amino)phenyl)acetic acid] | < 1000 nM |
| CCCNC(=O)Cc1ccc(Nc2nc(-c3cccc(Cl)c3)nc3c2S(=O)(=O)CCC3)cc1 [Example 276, 2-(4-((2-(3-Chlorophenyl)-5,5-dioxido-7,8-dihydro-6H-thiopyrano[3,2-d]pyrimidin-4-yl)amino)phenyl)-N-propylacetamide] | > 1000 nM |
| NC(=O)Cc1ccc(Cc2nc(-c3cccc(Cl)c3)nc3c2S(=O)(=O)CCC3)cc1 [Example 277, 2-(4-((2-(3-Chlorophenyl)-5,5-dioxido-7,8-dihydro-6H-thiopyrano[3,2-d]pyrimidin-4-yl)methyl)phenyl)acetamide] | < 1000 nM |
| O=S1(=O)CCCc2nc(-c3cccc(Cl)c3)nc(Cc3ccc(CCO)cc3)c21 [Example 278, 2-(3-chlorophenyl)-4-(4-(2-hydroxyethyl)benzyl)-7,8-dihydro-6H-thiopyrano[3,2-d]pyrimidine 5,5-dioxide] | < 1000 nM |
| OCCc1ccc(Nc2nc(-c3cccc(Cl)c3)nc3c2SCC3)cc1 [Example 279, 2-(4-((2-(3-Chlorophenyl)-6,7-dihydrothieno[3,2-d]pyrimidin-4-yl)amino)phenyl)ethanol] | < 1000 nM |
| NC(=O)Cc1ccc(Nc2nc(-c3cccc(Cl)c3)nc3c2SCC3)cc1 [Example 280, 2-(4-((2-(3-chlorophenyl)-6,7-dihydrothieno[3,2-d]pyrimidin-4-yl)amino)phenyl)acetamide] | < 1000 nM |
| O=S1(=O)CCc2nc(-c3cccc(Cl)c3)nc(Nc3ccc(CCO)cc3)c21 [Example 281, 2-(3-Chlorophenyl)-4-((4-(2-hydroxyethyl)phenyl)amino)-6,7-dihydrothieno[3,2-d]pyrimidine 5,5-dioxide] | < 1000 nM |
| NC(=O)Cc1ccc(Nc2nc(-c3cccc(Cl)c3)nc3c2S(=O)(=O)CC3)cc1 [Example 282, 2-(4-((2-(3-chlorophenyl)-5,5-dioxido-6,7-dihydrothieno[3,2-d]pyrimidin-4-yl)amino)phenyl)acetamide] | > 1000 nM |
| OCCc1ccc(Nc2nc(C3CCCC3)nc3c2SCCC3)cc1 [Example 283, 2-(4-((2-Cyclopentyl-7,8-dihydro-6H-thiopyrano[3,2-d]pyrimidin-4-yl)amino)phenyl)ethanol] | < 1000 nM |
| NC(=O)Cc1ccc(Nc2nc(C3CCCC3)nc3c2SCCC3)cc1 [Example 284, 2-(4-((2-cyclopentyl-7,8-dihydro-6H-thiopyrano[3,2-d]pyrimidin-4-yl)amino)phenyl)acetamide] | < 1000 nM |

| SMILES | IC50 |
| --- | --- |
| O=S1(=O)CCCc2nc(C3CCCC3)nc(Nc3ccc(CCO)cc3)c21 [Example 285, 2-Cyclopentyl-4-((4-(2-hydroxyethyl)phenyl)amino)-7,8-dihydro-6H-thiopyrano[3,2-d]pyrimidine 5,5-dioxide] | < 1000 nM |
| NC(=O)Cc1ccc(Nc2nc(C3CCCC3)nc3c2S(=O)(=O)CCC3)cc1 [Example 286, 2-(4-((2-cyclopentyl-5,5-dioxido-7,8-dihydro-6H-thiopyrano[3,2-d]pyrimidin-4-yl)amino)phenyl)acetamide] | < 1000 nM |
| O=S1(=O)CCCc2nc(C3CCCC3)nc(Nc3ccc(CCCO)cc3)c21 [Example 287, 2-Cyclopentyl-4-((4-(3-hydroxypropyl)phenyl)amino)-7,8-dihydro-6H-thiopyrano[3,2-d]pyrimidine 5,5-dioxide] | < 1000 nM |
| O=S1(=O)CCCc2nc(C3CCCC3)nc(Cc3ccc(CCO)cc3)c21 [Example 288, 2-Cyclopentyl-4-(4-(2-hydroxyethyl)benzyl)-7,8-dihydro-6H-thiopyrano[3,2-d]pyrimidine 5,5-dioxide] | < 1000 nM |
| Cc1ccc(Cc2cc(-c3cccc(Cl)c3)nc3c2CCC3)cc1 [Example 289, 2-(3-Chlorophenyl)-4-(4-methylbenzyl)-6,7-dihydro-5H-cyclopenta[b]pyridine hydrochloride] | > 1000 nM |
| Fc1ccc(Nc2cc(-c3cccc(Cl)c3)nc3c2CCC3)cc1 [Example 290, 2-(3-Chlorophenyl)-N-(4-fluorophenyl)-6,7-dihydro-5H-cyclopenta[b]pyridin-4-amine hydrochloride] | > 1000 nM |
| N#CCc1ccc(Nc2c(Cl)c(-c3cccc(Cl)c3)nc3c2CCC3)cc1 [Example 291, 2-(4-((3-Chloro-2-(3-chlorophenyl)-6,7-dihydro-5H-cyclopenta[b]pyridin-4-yl)amino)phenyl)acetonitrile hydrochloride] | > 1000 nM |
| CCc1c(C)nc(-c2ccc(Cl)s2)nc1Nc1ccc(B(O)O)cc1 [Example 292, [4-[[2-(5-Chloro-2-thienyl)-5-ethyl-6-methyl-pyrimidin-4-yl]amino]phenyl]boronic acid] | < 1000 nM |
| OB1OCc2cc(Nc3nc(-c4ccc(Cl)s4)nc4c3CCC4)ccc21 [Example 293, 2-(5-Chloro-2-thienyl)-N-(1-hydroxy-3H-2,1-benzoxaborol-5-yl)-6,7-dihydro-5H-cyclopenta[d]pyrimidin-4-amine] | < 1000 nM |
| OB1OCc2cc(Nc3nc(-c4cccc(Cl)c4)nc4c3CCC4)ccc21 [Example 294, 2-(3-Chlorophenyl)-N-(1-hydroxy-3H-2,1-benzoxaborol-5-yl)-6,7-dihydro-5H-cyclopenta[d]pyrimidin-4-amine] | > 1000 nM |
| OB1OCc2cc(Nc3nc(-c4ccc(Cl)cc4)nc4c3CCC4)ccc21 [Example 295, 2-(4-Chlorophenyl)-N-(1-hydroxy-3H-2,1-benzoxaborol-5-yl)-6,7-dihydro-5H-cyclopenta[d]pyrimidin-4-amine] | > 1000 nM |
| O=C(O)Cc1ccc(Nc2cc(C(F)(F)F)nc(-c3ccc(Cl)s3)n2)cc1 [Example 296, 2-[4-[[2-(5-Chloro-2-thienyl)-6-(trifluoromethyl)pyrimidin-4-yl]amino]phenyl]acetic acid] | > 1000 nM |
| O=C(O)Cc1ccc(Nc2cc(C3CC3)nc(-c3ccc(Cl)s3)n2)cc1 [Example 297, 2-[4-[[2-(5-Chloro-2-thienyl)-6-cyclopropyl-pyrimidin-4-yl]amino]phenyl]acetic acid] | > 1000 nM |
| Clc1ccc(-c2nc(Nc3ccc(Cc4nnn[nH]4)cc3)cc(C3CC3)n2)s1 [Example 298, 2-(5-Chloro-2-thienyl)-6-cyclopropyl-N-[4-(1H-tetrazol-5-ylmethyl)phenyl]pyrimidin-4-amine] | > 1000 nM |
| CCc1c(C)nc(-c2ccc(Cl)s2)nc1Nc1ccc(Cn2cccn2)cc1 [Example 299, 2-(5-Chloro-2-thienyl)-5-ethyl-6-methyl-N-[4-(pyrazol-1-ylmethyl)phenyl]pyrimidin-4-amine] | > 1000 nM |
| CCc1c(C)nc(-c2ccc(Cl)s2)nc1Nc1ccc(CC(=O)NC#N)cc1 [Example 301, 2-[4-[[2-(5-Chloro-2-thienyl)-5-ethyl-6-methyl-pyrimidin-4-yl]amino]phenyl]-N-cyano-acetamide] | > 1000 nM |
| CCc1c(C)nc(-c2ccc(Cl)s2)nc1Nc1ccc(Cc2noc(=O)[nH]2)cc1 [Example 302, 3-[[4-[[2-(5-Chloro-2-thienyl)-5-ethyl-6-methyl-pyrimidin-4-yl]amino]phenyl]methyl]-4H-1,2,4-oxadiazol-5-one] | > 1000 nM |
| CCc1c(C)nc(-c2ccc(Cl)s2)nc1Nc1ccc(C2=C(O)CCC2=O)cc1 [Example 303, 2-[4-[[2-(5-Chloro-2-thienyl)-5-ethyl-6-methyl-pyrimidin-4-yl]amino]phenyl]-3-hydroxy-cyclopent-2-en-1-one] | > 1000 nM |
